In publication PMC5218480 (PLoS ONE, 2017):

Tested on: MV-4-11 cells
Test: Gene expression microarray analysis (Affymetrix PrimeView) and GSEA
Assay type: cell-based, human
Parameters: RFU PODN (11730768_x_at) / Fold change /veh PODN (11730768_x_at) / RFU LINC00158 (11744669_a_at) / Fold change /veh LINC00158 (11744669_a_at) / RFU DUSP10 (11751237_a_at) / Fold change /veh DUSP10 (11751237_a_at) / RFU ID3 (11757404_x_at) / Fold change /veh ID3 (11757404_x_at) / RFU PLEKHG5 (11737974_s_at) / Fold change /veh PLEKHG5 (11737974_s_at) / RFU LRRC4B (11730491_at) / Fold change /veh LRRC4B (11730491_at) / RFU GIMAP4 (11747438_a_at) / Fold change /veh GIMAP4 (11747438_a_at) / RFU KRT8 (11758183_x_at) / Fold change /veh KRT8 (11758183_x_at) / RFU CNN1 (11734310_a_at) / Fold change /veh CNN1 (11734310_a_at) / RFU VPS37D (11726825_at) / Fold change /veh VPS37D (11726825_at) / RFU C10orf10 (11716522_x_at) / Fold change /veh C10orf10 (11716522_x_at) / RFU KIR2DL2 /// KIR2DL4 /// KIR2DL5A /// KIR2DL5B /// KIR2DS1 /// KIR2DS2 /// KIR2DS3 /// KIR2DS4 /// KIR3DL3 /// KIR3DL3 /// KIR3DS1 (11738374_at) / Fold change /veh KIR2DL2 /// KIR2DL4 /// KIR2DL5A /// KIR2DL5B /// KIR2DS1 /// KIR2DS2 /// KIR2DS3 /// KIR2DS4 /// KIR3DL3 /// KIR3DL3 /// KIR3DS1 (11738374_at) / RFU C1QL1 (11718748_at) / Fold change /veh C1QL1 (11718748_at) / RFU TMPRSS4 (11747572_a_at) / Fold change /veh TMPRSS4 (11747572_a_at) / RFU HAMP (11756126_x_at) / Fold change /veh HAMP (11756126_x_at) / RFU RNFT2 (11725882_a_at) / Fold change /veh RNFT2 (11725882_a_at) / RFU NR4A2 (11747474_a_at) / Fold change /veh NR4A2 (11747474_a_at) / RFU ABCC12 (11746883_a_at) / Fold change /veh ABCC12 (11746883_a_at) / RFU TMEM136 (11760407_x_at) / Fold change /veh TMEM136 (11760407_x_at) / RFU CLDN22 /// WWC2 (11732394_at) / Fold change /veh CLDN22 /// WWC2 (11732394_at) / RFU HLA-DPB1 (11760878_x_at) / Fold change /veh HLA-DPB1 (11760878_x_at) / RFU SPINT1 (11716480_a_at) / Fold change /veh SPINT1 (11716480_a_at) / RFU GAP43 (11754022_s_at) / Fold change /veh GAP43 (11754022_s_at) / RFU A4GNT (11735810_at) / Fold change /veh A4GNT (11735810_at) / RFU PRB3 (11715151_x_at) / Fold change /veh PRB3 (11715151_x_at) / RFU TUBB4B (11761932_at) / Fold change /veh TUBB4B (11761932_at) / RFU CAPN14 (11732068_a_at) / Fold change /veh CAPN14 (11732068_a_at) / RFU TMCC2 (11721928_a_at) / Fold change /veh TMCC2 (11721928_a_at) / RFU IRGQ (11745062_a_at) / Fold change /veh IRGQ (11745062_a_at) / RFU FAM174B (11720279_a_at) / Fold change /veh FAM174B (11720279_a_at) / RFU TMPRSS4 (11748680_a_at) / Fold change /veh TMPRSS4 (11748680_a_at) / RFU FAM212B (11763350_a_at) / Fold change /veh FAM212B (11763350_a_at) / RFU PLEKHG5 (11743358_a_at) / Fold change /veh PLEKHG5 (11743358_a_at) / RFU ZSCAN30 (11745921_a_at) / Fold change /veh ZSCAN30 (11745921_a_at) / RFU CMKLR1 (11741424_a_at) / Fold change /veh CMKLR1 (11741424_a_at) / RFU LOC101060620 /// MAPK8IP1 (11723275_at) / Fold change /veh LOC101060620 /// MAPK8IP1 (11723275_at) / RFU SPTSSB (11747773_x_at) / Fold change /veh SPTSSB (11747773_x_at) / RFU PRSS12 (11739890_at) / Fold change /veh PRSS12 (11739890_at) / RFU BIN1 (11741810_x_at) / Fold change /veh BIN1 (11741810_x_at) / RFU WNT11 (11732464_a_at) / Fold change /veh WNT11 (11732464_a_at) / RFU C10orf10 (11716521_a_at) / Fold change /veh C10orf10 (11716521_a_at) / RFU C5orf56 (11738089_at) / Fold change /veh C5orf56 (11738089_at) / RFU CYB561 (11721691_x_at) / Fold change /veh CYB561 (11721691_x_at) / RFU ANKRD19P (11752326_a_at) / Fold change /veh ANKRD19P (11752326_a_at) / RFU OR2T12 /// OR2T33 /// OR2T8 (11738714_s_at) / Fold change /veh OR2T12 /// OR2T33 /// OR2T8 (11738714_s_at) / RFU VCAN (11748164_a_at) / Fold change /veh VCAN (11748164_a_at) / RFU JSRP1 (11732532_at) / Fold change /veh JSRP1 (11732532_at) / RFU KRTAP10-11 (11738290_x_at) / Fold change /veh KRTAP10-11 (11738290_x_at) / RFU MYO3A (11730013_a_at) / Fold change /veh MYO3A (11730013_a_at) / RFU EBF3 (11725865_a_at) / Fold change /veh EBF3 (11725865_a_at) / RFU CAMK2N1 (11719241_x_at) / Fold change /veh CAMK2N1 (11719241_x_at) / RFU C5orf56 (11738088_a_at) / Fold change /veh C5orf56 (11738088_a_at) / RFU OLFML3 (11715873_a_at) / Fold change /veh OLFML3 (11715873_a_at) / RFU LOC100653217 /// NTM (11731650_a_at) / Fold change /veh LOC100653217 /// NTM (11731650_a_at) / RFU MAPK11 (11762145_a_at) / Fold change /veh MAPK11 (11762145_a_at) / RFU FIZ1 (11724087_x_at) / Fold change /veh FIZ1 (11724087_x_at) / RFU OASL (11726364_x_at) / Fold change /veh OASL (11726364_x_at) / RFU SOX15 (11748057_x_at) / Fold change /veh SOX15 (11748057_x_at) / RFU CD79A (11719716_a_at) / Fold change /veh CD79A (11719716_a_at) / RFU HIST1H1D (11736915_at) / Fold change /veh HIST1H1D (11736915_at) / RFU CASKIN2 (11723855_a_at) / Fold change /veh CASKIN2 (11723855_a_at) / RFU LOC730098 (11760151_x_at) / Fold change /veh LOC730098 (11760151_x_at) / RFU OR4N2 (11742367_at) / Fold change /veh OR4N2 (11742367_at) / RFU PRRT2 (11749266_a_at) / Fold change /veh PRRT2 (11749266_a_at) / RFU SNX32 (11753110_a_at) / Fold change /veh SNX32 (11753110_a_at) / RFU CDHR5 (11726645_a_at) / Fold change /veh CDHR5 (11726645_a_at) / RFU RCAN1 (11760418_a_at) / Fold change /veh RCAN1 (11760418_a_at) / RFU FAM167A (11723789_a_at) / Fold change /veh FAM167A (11723789_a_at) / RFU FAM26E (11764081_at) / Fold change /veh FAM26E (11764081_at) / RFU ISYNA1 (11749810_s_at) / Fold change /veh ISYNA1 (11749810_s_at) / RFU ACY1 (11761880_at) / Fold change /veh ACY1 (11761880_at) / RFU 11764098_at / Fold change /veh 11764098_at / RFU SAMD14 (11745864_x_at) / Fold change /veh SAMD14 (11745864_x_at) / RFU NPB (11741838_a_at) / Fold change /veh NPB (11741838_a_at) / RFU TMPRSS6 (11731388_a_at) / Fold change /veh TMPRSS6 (11731388_a_at) / RFU KRTAP10-2 (11738614_at) / Fold change /veh KRTAP10-2 (11738614_at) / RFU ARHGAP8 /// PRR5-ARHGAP8 (11727945_x_at) / Fold change /veh ARHGAP8 /// PRR5-ARHGAP8 (11727945_x_at) / RFU KRTAP5-7 /// NADSYN1 (11734609_at) / Fold change /veh KRTAP5-7 /// NADSYN1 (11734609_at) / RFU RASL12 (11751679_a_at) / Fold change /veh RASL12 (11751679_a_at) / RFU CDKN2B (11736163_a_at) / Fold change /veh CDKN2B (11736163_a_at) / RFU PRF1 (11729649_at) / Fold change /veh PRF1 (11729649_at) / RFU, ZNF638 /// ZNF638-IT1 / Fold change vs veh, ZNF638 /// ZNF638-IT1 / RFU, PANK3 / Fold change vs veh, PANK3 / RFU, SH3YL1 / Fold change vs veh, SH3YL1 / RFU, ZEB2 / Fold change vs veh, ZEB2 / RFU, NRIP1 / Fold change vs veh, NRIP1 / RFU, PTTG1IP / Fold change vs veh, PTTG1IP / RFU, CAPN2 / Fold change vs veh, CAPN2 / RFU, MED14 / Fold change vs veh, MED14 / RFU, SNORA58 / Fold change vs veh, SNORA58 / RFU, C1orf63 / Fold change vs veh, C1orf63 / RFU, LRRFIP1 / Fold change vs veh, LRRFIP1 / RFU, NDUFAF7 / Fold change vs veh, NDUFAF7 / RFU, SLC12A2 / Fold change vs veh, SLC12A2 / RFU, IBTK / Fold change vs veh, IBTK / RFU, ESF1 / Fold change vs veh, ESF1 / Fold change vs veh, TMEM50B / RFU, TAOK1 / Fold change vs veh, TAOK1 / RFU, ACBD3 / Fold change vs veh, ACBD3 / RFU, TMA16 / Fold change vs veh, TMA16 / RFU, RWDD3 / Fold change vs veh, RWDD3 / RFU, BCAT1 / Fold change vs veh, BCAT1 / RFU, EDEM3 / Fold change vs veh, EDEM3 / RFU, TMEM33 / Fold change vs veh, TMEM33 / RFU, WDR75 / Fold change vs veh, WDR75 / RFU, AHCTF1 / Fold change vs veh, AHCTF1 / RFU, TFRC / Fold change vs veh, TFRC / RFU, ZDHHC17 / Fold change vs veh, ZDHHC17 / RFU, NOM1 / Fold change vs veh, NOM1 / RFU, ARL8B / Fold change vs veh, ARL8B / RFU, ZBTB11 / Fold change vs veh, ZBTB11 / RFU, TAMM41 / Fold change vs veh, TAMM41 / RFU, KIAA1704 /// LOC100996395 / Fold change vs veh, KIAA1704 /// LOC100996395 / RFU, ING1 / Fold change vs veh, ING1 / RFU, TRMT61B / Fold change vs veh, TRMT61B / RFU, FUBP3 / Fold change vs veh, FUBP3 / RFU, TP53 / Fold change vs veh, TP53 / RFU, TNKS2 / Fold change vs veh, TNKS2 / RFU, ZFP14 / Fold change vs veh, ZFP14 / RFU, ACTR2 / Fold change vs veh, ACTR2 / RFU, PPP3R1 / Fold change vs veh, PPP3R1 / RFU, PIK3R1 / Fold change vs veh, PIK3R1 / RFU, HNRNPA1 / Fold change vs veh, HNRNPA1 / RFU, RNF170 / Fold change vs veh, RNF170 / RFU, ZNF28 / Fold change vs veh, ZNF28 / RFU, RNGTT / Fold change vs veh, RNGTT / RFU, OGT / Fold change vs veh, OGT / RFU, BRD1 / Fold change vs veh, BRD1 / RFU, MARS / Fold change vs veh, MARS / RFU, ZNF655 / Fold change vs veh, ZNF655 / RFU, FAHD1 / Fold change vs veh, FAHD1 / RFU, BDP1 / Fold change vs veh, BDP1 / RFU, LRRCC1 / Fold change vs veh, LRRCC1 / RFU, ARID1A / Fold change vs veh, ARID1A / RFU, ZNF146 / Fold change vs veh, ZNF146 / RFU, ZNF330 / Fold change vs veh, ZNF330 / RFU, GPN3 / Fold change vs veh, GPN3 / RFU, C9orf123 / Fold change vs veh, C9orf123 / RFU, N4BP2L2 / Fold change vs veh, N4BP2L2 / RFU, ARFIP1 / Fold change vs veh, ARFIP1 / RFU, FAM179B / Fold change vs veh, FAM179B / RFU, BCL10 / Fold change vs veh, BCL10 / RFU, UHRF1BP1L / Fold change vs veh, UHRF1BP1L / RFU, BET1 / Fold change vs veh, BET1 / RFU, CNOT2 / Fold change vs veh, CNOT2 / RFU, ZNF268 / Fold change vs veh, ZNF268 / Fold change vs veh, ZNF507 / RFU, DGCR2 / Fold change vs veh, DGCR2 / RFU, WDSUB1 / Fold change vs veh, WDSUB1 / Fold change vs veh, HSP90B1 /// MIR3652 / RFU, ADSS / Fold change vs veh, ADSS / RFU, GK / Fold change vs veh, GK / RFU, ZNF148 / Fold change vs veh, ZNF148 / RFU, TAF9 / Fold change vs veh, TAF9 / RFU, SLC1A5 / Fold change vs veh, SLC1A5 / RFU, SLMO2 / Fold change vs veh, SLMO2 / RFU, ABCC4 / Fold change vs veh, ABCC4 / RFU, LOC101060439 /// RAP1B / Fold change vs veh, LOC101060439 /// RAP1B / RFU, RFX7 / Fold change vs veh, RFX7 / RFU, GTPBP10 / Fold change vs veh, GTPBP10 / RFU, CNEP1R1 / Fold change vs veh, CNEP1R1 / RFU, BIVM-ERCC5 /// ERCC5 / Fold change vs veh, BIVM-ERCC5 /// ERCC5 / RFU, ILF3 / Fold change vs veh, ILF3 / RFU 11762660_at / Fold change /veh 11762660_at / RFU VCAN (11757783_s_at) / Fold change /veh VCAN (11757783_s_at) / RFU DDX43 (11728927_at) / Fold change /veh DDX43 (11728927_at) / RFU KRT8 (11758188_x_at) / Fold change /veh KRT8 (11758188_x_at) / RFU NKD1 (11759106_at) / Fold change /veh NKD1 (11759106_at) / RFU SRD5A1 (11742802_a_at) / Fold change /veh SRD5A1 (11742802_a_at) / RFU TPSAB1 /// TPSB2 (11721975_s_at) / Fold change /veh TPSAB1 /// TPSB2 (11721975_s_at) / RFU GSTM3 (11746129_a_at) / Fold change /veh GSTM3 (11746129_a_at) / RFU IL23R (11737362_x_at) / Fold change /veh IL23R (11737362_x_at) / RFU TMEM51 (11727254_a_at) / Fold change /veh TMEM51 (11727254_a_at) / RFU PIWIL2 (11732686_x_at) / Fold change /veh PIWIL2 (11732686_x_at) / RFU ORM1 (11744905_x_at) / Fold change /veh ORM1 (11744905_x_at) / RFU CCDC152 (11743942_at) / Fold change /veh CCDC152 (11743942_at) / RFU ECM1 (11717891_a_at) / Fold change /veh ECM1 (11717891_a_at) / RFU IL23R (11748794_a_at) / Fold change /veh IL23R (11748794_a_at) / RFU TNFAIP8L3 (11732012_x_at) / Fold change /veh TNFAIP8L3 (11732012_x_at) / RFU MBOAT4 (11741988_at) / Fold change /veh MBOAT4 (11741988_at) / RFU 11764193_at / Fold change /veh 11764193_at / RFU TMEM53 (11763286_at) / Fold change /veh TMEM53 (11763286_at) / RFU MAGEB2 (11727129_at) / Fold change /veh MAGEB2 (11727129_at) / RFU TMEM200A (11744735_a_at) / Fold change /veh TMEM200A (11744735_a_at) / RFU CCDC152 (11751479_a_at) / Fold change /veh CCDC152 (11751479_a_at) / RFU FAM211A (11726209_a_at) / Fold change /veh FAM211A (11726209_a_at) / RFU RGS16 (11746705_a_at) / Fold change /veh RGS16 (11746705_a_at) / RFU VCAN (11755009_s_at) / Fold change /veh VCAN (11755009_s_at) / RFU RHOB (11743442_s_at) / Fold change /veh RHOB (11743442_s_at) / RFU RGS16 (11720943_a_at) / Fold change /veh RGS16 (11720943_a_at) / RFU RGS16 (11720944_at) / Fold change /veh RGS16 (11720944_at) / RFU, VPS4B / Fold change vs veh, VPS4B / RFU, CREB1 / Fold change vs veh, CREB1 / RFU, DNAJC13 / Fold change vs veh, DNAJC13 / RFU, GNAQ / Fold change vs veh, GNAQ / RFU, CDK5R1 / Fold change vs veh, CDK5R1 / RFU, ZRANB3 / Fold change vs veh, ZRANB3 / RFU, CUL4A / Fold change vs veh, CUL4A / RFU, CCNY / Fold change vs veh, CCNY / RFU, UFL1 / Fold change vs veh, UFL1 / RFU, COG3 / Fold change vs veh, COG3 / RFU, DIAPH2 / Fold change vs veh, DIAPH2 / RFU, SKA2 / Fold change vs veh, SKA2 / RFU, AFF3 / Fold change vs veh, AFF3 / RFU, LMF1 / Fold change vs veh, LMF1 / RFU, IPO11 / Fold change vs veh, IPO11 / RFU, DFFB / Fold change vs veh, DFFB / RFU, FOXP1 / Fold change vs veh, FOXP1 / RFU, CARD8 / Fold change vs veh, CARD8 / RFU, STRN3 / Fold change vs veh, STRN3 / RFU, ADK / Fold change vs veh, ADK / RFU, RASSF2 / Fold change vs veh, RASSF2 / RFU, WIPF1 / Fold change vs veh, WIPF1 / RFU, LARP1B / Fold change vs veh, LARP1B / RFU, RASA1 / Fold change vs veh, RASA1 / RFU, RB1 / Fold change vs veh, RB1 / RFU, PPFIA1 / Fold change vs veh, PPFIA1 / RFU, MAT2A / Fold change vs veh, MAT2A / RFU, CCT5 / Fold change vs veh, CCT5 / RFU, WDR92 / Fold change vs veh, WDR92 / RFU, CUX1 / Fold change vs veh, CUX1 / RFU, TTC7A / Fold change vs veh, TTC7A / RFU, TMEM135 / Fold change vs veh, TMEM135 / RFU, DEPTOR / Fold change vs veh, DEPTOR / RFU, CPM / Fold change vs veh, CPM / RFU, DNAJB6 / Fold change vs veh, DNAJB6 / RFU, CACNA2D3 / Fold change vs veh, CACNA2D3 / RFU, DTX4 / Fold change vs veh, DTX4 / RFU, TFCP2 / Fold change vs veh, TFCP2 / RFU, GMCL1 /// GMCL1P1 / Fold change vs veh, GMCL1 /// GMCL1P1 / RFU, AEBP2 / Fold change vs veh, AEBP2 / RFU, SNHG1 /// SNORD22 /// SNORD25 /// SNORD26 /// SNORD27 /// SNORD28 /// SNORD29 /// SNORD31 / Fold change vs veh, SNHG1 /// SNORD22 /// SNORD25 /// SNORD26 /// SNORD27 /// SNORD28 /// SNORD29 /// SNORD31 / Fold change (Aza/veh), C12orf56 (ProbeSet 11735607_a_at) / Fold change (ACY-1035/veh), C12orf56 (ProbeSet 11735607_a_at) / Fold change (Aza/veh), FGFR1OP (ProbeSet 11751329_s_at) / Fold change (ACY-1035/veh), FGFR1OP (ProbeSet 11751329_s_at) / Fold change (Aza/veh), VPS36 (ProbeSet 11739960_a_at) / Fold change (ACY-1035/veh), VPS36 (ProbeSet 11739960_a_at) / RFU SYPL1 (11715823_x_at) / Fold change /veh SYPL1 (11715823_x_at) / RFU IGFBP7 (11715501_s_at) / Fold change /veh IGFBP7 (11715501_s_at) / RFU REEP3 (11722064_at) / Fold change /veh REEP3 (11722064_at) / RFU IGLL1 (11728026_x_at) / Fold change /veh IGLL1 (11728026_x_at): dose or concentration left out as unconfirmed
Conditions: MV-4-11 cells, 48 hours

Nc1ncn([C@@H]2O[C@H](CO)[C@@H](O)[C@H]2O)c(=O)n1 [azacitidine]
Fold change /veh NKD1 (11759106_at): 1.33
